Values joined by “and” are separate entries in the source; they are usually repeats but may differ in a detail not shown here. Identical values can stand only once. “Also recorded” adds a separate entry of the source. Counter-ions that a name gives are not always drawn. Like-named read-outs stand apart in the source and are kept apart here.
What was measured:
Ramos tumor xenografts = experiment: In vivo anti-tumor activity on Ramos tumor xenografts; set-up: species or system BALB/c nude mice; conditions: Q7D×3, i.v. (title: Q1D×1; i.v.)
[1] = for % Deaths / D/T, # Deaths/Total Treated: Daudi or Ramos bearing mice
Daudi tumor xenografts = experiment: In vivo anti-tumor activity on Daudi tumor xenografts; conditions: for anti-tumor activity: Q5D×2 (days 20 and 25), 4.1 mg/kg/inj ADM and/or 630 mg/kg/inj 5E9
EGF receptor = target: T1, EGF receptor (Homo sapiens, UniProt P00533); experiment: 125I-EGF competition radioisotope assay on A431 cells; assay type: binding; conditions: 4° C., 4 h
T1 construct: endogenous in cells; host or cells: A431 cells
Description: The retention of EGF binding activity after chemical coupling of ADM-HZN to EGF was determined by a competition radioisotope assay, using the A431 cell line. This cell line was derived from a […] and in our laboratory can bind between 1-4×10^7 molecules of EGF (results not shown). Cells, diluted in RPMI 1640 growth medium containing 10% FCS, were plated in 96-well microtiter plates (5×10^5 cells/well) 24 h before the assay. On the day of the assay, the A431 cells, which grow as an adherent cell population, were washed in DMEM containing 2% bovine serum albumin (hereafter referred to as buffer A). Cells (in triplicate) were incubated with 0.05 ml of 2-fold serially diluted EGF or EGF-ADM, and 0.05 ml of ^125 I-labeled EGF (50 ng/ml) diluted in buffer A (final volume: 0.1 ml/well). The cells were incubated at 4° C. for 4 h, and then washed 3 times with buffer A. The cells were removed from the 96-well plastic plates by solubilization with 1.0M NaOH, and the amount of cell-bound ^125 I-EGF was determined by counting on a LKB model 1272 gamma counter.

[2] = N=1, Q1D×1, i.v., ADM 14 mg/kg/inj, cumulative 14
[3] = N=1, Q2D×2, i.v., ADM 8 mg/kg/inj, cumulative 16
[4] = N=1, Q2D×2, i.v., ADM 10 mg/kg/inj, cumulative 20
[5] = N=1, Q2D×2, i.v., ADM 15 mg/kg/inj, cumulative 30
[6] = N=1, Q3D×2, i.v., ADM 12 mg/kg/inj, cumulative 24
[7] = N=1, Q3D×2, i.v., ADM 14 mg/kg/inj, cumulative 28
[8] = N=1, Q3D×2, i.v., ADM 16 mg/kg/inj, cumulative 32
[9] = N=1, Q4D×2, i.v., ADM 10 mg/kg/inj, cumulative 20
[10] = N=1, Q4D×2, i.v., ADM 14 mg/kg/inj, cumulative 28
[11] = N=1, Q4D×3, i.p., ADM 5 mg/kg/inj, cumulative 15
[12] = N=1, Q5D×2, i.p., ADM 4.1 mg/kg/inj, cumulative 8.2
[13] = N=1, Q5D×2, i.p., ADM 5.5 mg/kg/inj, cumulative 11
[14] = N=1, Q7D×3, i.v., ADM 12 mg/kg/inj, cumulative 36
[15] = N=1, Q8D×2, i.p., ADM 5 mg/kg/inj, cumulative 10
[16] = N=1, Q8D×2, i.p., ADM 10 mg/kg/inj, cumulative 20
[17] = N=1, Q8D×2, i.p., ADM 13 mg/kg/inj, cumulative 26
[18] = N=2, Q2D×2, i.v., ADM 12 mg/kg/inj, cumulative 24
[19] = N=2, Q4D×2, i.v., ADM 12 mg/kg/inj, cumulative 24
[20] = N=3, Q1D×1, i.v., ADM 16 mg/kg/inj, cumulative 16
[21] = N=3, Q7D×3, i.v., ADM 10 mg/kg/inj, cumulative 30
[22] = N=3, Q7D×3, i.v., ADM 11 mg/kg/inj, cumulative 33
[23] = N=4 experiments, Q1D×1, i.v., ADM 18 mg/kg/inj, cumulative 18
[24] = Daudi-bearing mice, 5 mg/kg/inj, cum 10, Q8D×2, i.p.
[25] = Daudi-bearing mice, 5 mg/kg/inj, cum 15, Q4D×3, i.p.
[26] = Daudi-bearing mice, 5 mg/kg/inj, cum 15, Q7D×3, i.p.
[27] = Daudi-bearing mice, 5 mg/kg/inj, cum 15, Q7D×3, i.v.
[28] = Daudi-bearing mice, 10 mg/kg/inj, cum 30, Q7D×3, i.p.
[29] = Daudi-bearing mice, 11 mg/kg/inj, cum 33, Q7D×3, i.v., hydrochloride, 11 mg/kg
[30] = Daudi-bearing mice, 12 mg/kg/inj, cum 12, Q1D×1, i.v.
[31] = Daudi-bearing mice, 13 mg/kg/inj, cum 26, Q8D×2, i.p.
[32] = Daudi-bearing mice, 15 mg/kg/inj, cum 15, Q1D×1, i.v.
[33] = Daudi-bearing mice, 18 mg/kg/inj, cum 18, Q1D×1, i.v.
[34] = Daudi-bearing mice, 20 mg/kg/inj, cum 20, Q1D×1, i.v.
[35] = Ramos-bearing mice, 16 mg/kg/inj, Q7D×3, i.v. (title: Q1D×1; i.v.)
[36] = Ramos-bearing mice, 18 mg/kg/inj, Q7D×3, i.v. (title: Q1D×1; i.v.)
[37] = 4.1 mg/kg/inj, cum 8.2, Q5D×2, i.p.
[38] = 4.5 mg/kg/inj, cum 9, Q5D×2, i.p.
[39] = 5 mg/kg/inj, cum 15, Q7D×3, i.v.
[40] = 5.5 mg/kg/inj, cum 11, Q5D×2, i.p.
[41] = 9 mg/kg/inj, cum 27, Q7D×3, i.v.
[42] = 11 mg/kg/inj, cum 33, Q7D×3, i.v., hydrochloride
[43] = 12 mg/kg/inj, cum 36, Q7D×3, i.v., hydrochloride

COc1cccc2c1C(=O)c1c(O)c3c(c(O)c1C2=O)C[C@@](O)(C(=O)CO)C[C@@H]3O[C@H]1C[C@H](N)[C@H](O)[C@H](C)O1 [ADM-HCl, adriamycin hydrochloride]
CR, complete regressions (Ramos tumor xenografts; 16 mg/kg/inj): 0 | Cures (Ramos tumor xenografts; 16 mg/kg/inj): 0 | T-C, delay to reach 3000 mm^3 vs untreated controls (Ramos tumor xenografts; 16 mg/kg/inj): 5 days | TDD, tumor doubling delay (Ramos tumor xenografts; 16 mg/kg/inj): 0.3 | CR, complete regressions (Ramos tumor xenografts; 18 mg/kg/inj): 0 | Cures (Ramos tumor xenografts; 18 mg/kg/inj): 0 | T-C, delay to reach 3000 mm^3 vs untreated controls (Ramos tumor xenografts; 18 mg/kg/inj): 8 days | TDD, tumor doubling delay (Ramos tumor xenografts; 18 mg/kg/inj): 0.5 | % Deaths [1, 2]: 0% | D/T, # Deaths/Total Treated [1, 2]: 0/8 | % Deaths [1, 3]: 20% | D/T, # Deaths/Total Treated [1, 3]: 1/5 | % Deaths [1, 4]: 60% | D/T, # Deaths/Total Treated [1, 4]: 3/5 | % Deaths [1, 5]: 100% | D/T, # Deaths/Total Treated [1, 5]: 7/7 | % Deaths [1, 6]: 75% | D/T, # Deaths/Total Treated [1, 6]: 6/8 | % Deaths [1, 7]: 88% | D/T, # Deaths/Total Treated [1, 7]: 7/8 | % Deaths [1, 8]: 100% | D/T, # Deaths/Total Treated [1, 8]: 8/8 | % Deaths [1, 9]: 25% | D/T, # Deaths/Total Treated [1, 9]: 2/8 | % Deaths [1, 10]: 86% | D/T, # Deaths/Total Treated [1, 10]: 6/7 | % Deaths [1, 11]: 67% | D/T, # Deaths/Total Treated [1, 11]: 6/9 | % Deaths [1, 12]: 20% | D/T, # Deaths/Total Treated [1, 12]: 1/5 | % Deaths [1, 13]: 0% | D/T, # Deaths/Total Treated [1, 13]: 0/8 | % Deaths [1, 14]: 50% | D/T, # Deaths/Total Treated [1, 14]: 4/8 | % Deaths [1, 15]: 38% | D/T, # Deaths/Total Treated [1, 15]: 3/8 | % Deaths [1, 16]: 100% | D/T, # Deaths/Total Treated [1, 16]: 8/8 | % Deaths [1, 17]: 100% | D/T, # Deaths/Total Treated [1, 17]: 7/7 | % Deaths [1, 18]: 83% | D/T, # Deaths/Total Treated [1, 18]: 10/12 | % Deaths [1, 19]: 47% | D/T, # Deaths/Total Treated [1, 19]: 7/15 | % Deaths [1, 20]: 10% | D/T, # Deaths/Total Treated [1, 20]: 3/31 | % Deaths [1, 21]: 0% | D/T, # Deaths/Total Treated [1, 21]: 0/24 | % Deaths [1, 22]: 15% | D/T, # Deaths/Total Treated [1, 22]: 4/26 | % Deaths [1, 23]: 44% | D/T, # Deaths/Total Treated [1, 23]: 14/32 | D/T, deaths/total animals ([1]; Daudi-bearing mice, 4.1 mg/kg/inj, cum 8.2, Q5D×2, i.p.): 1/5 | D/T, deaths/total animals ([1]; Daudi-bearing mice, 4.5 mg/kg/inj, cum 9, Q5D×2, i.p., hydrochloride, 4.5 mg/kg): 0/5 and 0/8 | D/T, deaths/total animals [1, 24]: 3/8 | Toxicity (%), deaths [1, 24]: 37% | D/T, deaths/total animals [1, 25]: 6/9 | Toxicity (%), deaths [1, 25]: 67% | D/T, deaths/total animals [1, 26]: 6/9 | Toxicity (%), deaths [1, 26]: 67% | D/T, deaths/total animals [1, 27]: 1/9 | Toxicity (%), deaths [1, 27]: 11% | D/T, deaths/total animals ([1]; Daudi-bearing mice, 5.5 mg/kg/inj, cum 11, Q5D×2, i.p.): 0/8 | D/T, deaths/total animals ([1]; Daudi-bearing mice, 9 mg/kg/inj, cum 27, Q7D×3, i.v.): 0/10 | D/T, deaths/total animals ([1]; Daudi-bearing mice, 10 mg/kg/inj, cum 20, Q8D×2, i.p.): 8/8 | D/T, deaths/total animals [1, 28]: 8/8 | Toxicity (%), deaths [1, 28]: 100% | D/T, deaths/total animals ([1]; Daudi-bearing mice, 10 mg/kg/inj, cum 30, Q7D×3, i.v., hydrochloride, 10 mg/kg): 0/8 and 0/7 | D/T, deaths/total animals [1, 29]: 2/8 and 2/10 and 0/8 | Toxicity (%), deaths [1, 29]: 25% and 20% | D/T, deaths/total animals [1, 30]: 7/7 | Toxicity (%), deaths [1, 30]: 100% | Toxicity (%), deaths ([1]; Daudi-bearing mice, 12 mg/kg/inj, cum 36, Q7D×3, i.v.): 50% | D/T, deaths/total animals ([1]; Daudi-bearing mice, 12 mg/kg/inj, cum 36, Q7D×3, i.v., hydrochloride, 12 mg/kg): 4/8 and 2/8 | D/T, deaths/total animals [1, 31]: 7/7 | Toxicity (%), deaths [1, 31]: 100% | D/T, deaths/total animals [1, 32]: 7/7 | Toxicity (%), deaths [1, 32]: 100% | D/T, deaths/total animals [1, 33]: 6/8 | Toxicity (%), deaths [1, 33]: 75% | D/T, deaths/total animals [1, 34]: 7/7 | Toxicity (%), deaths [1, 34]: 100% | MTD (maximum tolerated dose) ([1]; Q7D×3, i.v.): 11 mg/kg/inj | D/T, deaths/total animals [1, 35]: 1/8 | Toxicity (%), deaths (lethality) [1, 35]: 12% | D/T, deaths/total animals [1, 36]: 2/8 | Toxicity (%), deaths (lethality) [1, 36]: 25% | MTD (maximum tolerated dose) ([1]; i.p.): 4-5 mg/kg/inj | CR, complete regressions (Daudi tumor xenografts; [37]): 0 | Cures (Daudi tumor xenografts; [37]): 0 | T-C, delay to reach 3000 mm^3 vs untreated controls (Daudi tumor xenografts; [37]): 0 days | TDD, tumor doubling delay (Daudi tumor xenografts; [37]): 0 | CR, complete regressions (Daudi tumor xenografts; [38]): 0 | Cures (Daudi tumor xenografts; [38]): 0 | T-C, delay to reach 3000 mm^3 vs untreated controls (Daudi tumor xenografts; [38]): 2.2 days | CR, complete regressions (Daudi tumor xenografts; [39]): 2 | Cures (Daudi tumor xenografts; [39]): 0 | T-C, delay to reach 3000 mm^3 vs untreated controls (Daudi tumor xenografts; [39]): 6.2 days | TDD, tumor doubling delay (Daudi tumor xenografts; [39]): 0.18 | CR, complete regressions (Daudi tumor xenografts; [40]): 0 | Cures (Daudi tumor xenografts; [40]): 0 | T-C, delay to reach 3000 mm^3 vs untreated controls (Daudi tumor xenografts; [40]): 2.2 days | TDD, tumor doubling delay (Daudi tumor xenografts; [40]): .1 | CR, complete regressions (Daudi tumor xenografts; [41]): 0 | Cures (Daudi tumor xenografts; [41]): 1 | T-C, delay to reach 3000 mm^3 vs untreated controls (Daudi tumor xenografts; [41]): 23 days | TDD, tumor doubling delay (Daudi tumor xenografts; [41]): 0.9 | CR, complete regressions (Daudi tumor xenografts; 10 mg/kg/inj, cum 30, Q7D×3, i.v.): 0 | TDD, tumor doubling delay (Daudi tumor xenografts; 10 mg/kg/inj, cum 30, Q7D×3, i.v., hydrochloride): 0.7 and 0.8 | T-C, delay to reach 3000 mm^3 vs untreated controls (Daudi tumor xenografts; [42]): 28 days and > 42 days and 21 days | TDD, tumor doubling delay (Daudi tumor xenografts; [42]): 1.1 and > 1.3 and 0.7 and > 1.1 | Cures (Daudi tumor xenografts; 12 mg/kg/inj, cum 36, Q7D×3, i.v.): 3 | T-C, delay to reach 3000 mm^3 vs untreated controls (Daudi tumor xenografts; [43]): > 62 days and > 33 days | TDD, tumor doubling delay (Daudi tumor xenografts; [43]): > 2.0 and > 1.5 | anti-tumor activity (Daudi tumor xenografts; i.p., hydrochloride): no anti-tumor activity | anti-tumor activity (Daudi tumor xenografts; i.p., listed as ADM, hydrochloride): inactive | growth inhibition of Daudi tumor xenografts (Daudi tumor xenografts; Q7D×3, i.v., 9, 10 or 11 mg/kg/injection): significantly inhibited in a dose dependent fashion | anti-tumor activity at MTD (Daudi tumor xenografts; i.p. route, MTD): inactive

EGF-ADM: SPDP-thiolated murine EGF reacted with ADM-HZN, 13-keto acylhydrazone linker
inhibition of 125I-EGF binding, binding activity vs unconjugated EGF (EGF receptor): only a small loss in binding activity; also recorded: retention of binding activity

— patent publication US5122368A, “Anthracycline conjugates having a novel linker and methods for their production” (Bristol-Myers Squibb Company, priority 1989, dated 1992)
